In the NIST ThermoML archive (doi:10.1021/je800622e) one finds molar conductivity and mass density data, which are given here for two compounds.

Numbers after ± are expanded uncertainties.

The series in a line: mn = molality of the nth substance listed, in mol/kg. The conditions noted are these: 298.15 K, 101 kPa, Liquid; for molar conductivity: Alternating current cell with electrodes; for mass density: Pycnometric method.

For orientation: mass density means mass per unit of volume. `CCCCn1cc[n+](C)c1.F[B-](F)(F)F` [1-butyl-3-methylimidazolium tetrafluoroborate] + O: the molar conductivity (m1 = 0.05) came out at 0.00906 ± 0.00054 S·m2/mol; the molar conductivity (m1 = 0.1) was determined as 0.0085 ± 0.00051 S·m2/mol; the molar conductivity (m1 = 0.15) came to 0.008 ± 0.00048 S·m2/mol; the molar conductivity (m1 = 0.25) is 0.00714 ± 0.00043 S·m2/mol; the molar conductivity (m1 = 0.5) amounted to 0.00547 ± 0.00033 S·m2/mol; the molar conductivity (m1 = 0.75) is 0.00419 ± 0.00025 S·m2/mol. The molar conductivity (m1 = 1) stood at 0.00389 ± 0.00023 S·m2/mol. Moreover, the mass density is 999 ± 0.89 kg/m3 (m1 = 0.05); 1000.85 ± 0.89 kg/m3 (m1 = 0.1); 1002.63 ± 0.9 kg/m3 (m1 = 0.15); 1006.1 ± 0.9 kg/m3 (m1 = 0.25); 1014.2 ± 0.91 kg/m3 (m1 = 0.5); 1021.57 ± 0.91 kg/m3 (m1 = 0.75). For the same compound, the mass density (m1 = 1) was determined as 1028.25 ± 0.92 kg/m3.
With `OC[C@H]1O[C@@](CO)(O[C@H]2O[C@H](CO)[C@@H](O)[C@H](O)[C@H]2O)[C@@H](O)[C@@H]1O` [D-sucrose] + O, the mass density was 999.72 ± 0.88 kg/m3 (m1 = 0.02); 1004.87 ± 0.89 kg/m3 (m1 = 0.06); 1009.9 ± 0.89 kg/m3 (m1 = 0.1); 1016.06 ± 0.9 kg/m3 (m1 = 0.15); 1022.12 ± 0.91 kg/m3 (m1 = 0.2); 1027.95 ± 0.91 kg/m3 (m1 = 0.25).
